# US20260226493A1, “HERBICIDE RESISTANT PLANTS” (SYNGENTA CROP PROTECTION AG, priority 2023, published 2026)
# How the values were obtained:
# Format in all cases: biochemical
# [1] = tested on: Schizosaccharomyces japonicus BioDA; assay: BioDA enzyme activity with DMSO or herbicide in vitro
# From the text: (§1) A pet-24 plasmid containing a DNA sequence encoding each identified variant mutant of BIO3-BIO1 derived from Arabidopsis thaliana from example 5 above, as shown in Table 13 below and as shown in full in SEQ ID NOs: 15 to 155, codon-optimised for expression in E. coli, with an N-terminal 6×His-tag and thrombin cleavage site and under control of a T7 promoter, and was synthesised by Twist Bioscience, in a similar manner to SEQ ID NO:311. These plasmids were then expressed in E. coli BL21 (DE3) bioA with 50 μg/mL kanamycin and 25 μg/mL chloramphenicol selection. Overnight cultures grown at 37° C. were used to inoculate 8×500 mL AIM in shake flasks at a ratio of 1:100. Cultures were grown at 37° C., 200 rpm for 3.5 hours and then overnight at 20° C. Cells were harvested by centrifugation for 30 minutes at 10 000 g. Cells were stored at −80° C. until extraction. 30 g of cell pellet from was thawed in 120 mL of IMAC buffer A (20 mM HEPES pH7.5, 25 mM imidazole, 500 mM sodium chloride, 0.15 mM pyridoxal phosphate, 0.5 mM TCEP, 1× complete Protease Inhibitor Tablet (Roche)). The resuspension was passed through a cell disrupter at 18 000 PSI and centrifuged at 50 000 g for 25 minutes at 4° C. The His-tagged BIO3-BIO1 protein was purified from the extract supernatant on an AKTA avant chromatography system (Cytiva) using a HisTrap FF column and eluted in IMAC buffer B ((20 mM HEPES pH7.5, 500 mM imidazole, 500 mM sodium chloride, 0.15 mM pyridoxal phosphate, 0.5 mM TCEP) followed by SEC using a HiLoad 26/60 Superdex200 column in SEC buffer (25 mM HEPES pH7.5, 150 mM sodium chloride, 0.15 mM pyridoxal phosphate, 0.5 mM TCEP). Protein concentration was measured and calculated using the absorbance at 280 nm. Extracts were diluted 1 in 4 and 10 uL was analysed by SDS PAGE.
# (§2) To measure BIO3-BIO1 mutant enzyme activity in the presence of herbicide, herbicides were incubated with 20 μL of enzyme mix (100 mM EPPS pH 8.6, 0.1 mM pyridoxal phosphate, 0.1 mg/mL BSA, 50 nM BIO3-BIO1 enzyme) for 10 minutes at 20° C. in a well of a 96-well half-area black plate, followed by the addition of 20 μL of substrate mix (final concentration of 100 mM EPPS pH 8.6, 0.1 mM pyridoxal phosphate, 0.1 mg/mL BSA, 100 μM spermidine, 20 μM KAPA, 100 mM NaCO3) and further incubation for 75 minutes at 20° C. The reaction was terminated by the addition of 50 μL of derivatisation mix (final concentration of 250 mM borate NaOH pH 9.4, 3.6 mM o-phthalaldehyde, 7 mM β-mercaptoethanol, 17% (v/v) ethanol, 3.6% (v/v) methanol). The fluorescent product produced by the reaction of DAPA with o-phthalaldehyde and 7 mM β-mercaptoethanol was measured at 470 nm after excitation at 410 nm. The percentage inhibition was calculated as the activity in the presence of one of three concentrations of each herbicide compound A to M (note that the compounds labelled as A to M are identified hereinabove in the relevant section of the description) as a percentage of the activity in DMSO (Table 12 and 13). The percentage activity versus WT was also calculated and is shown in Table 13 and 14 (NT indicates mutation not tested in table 13, note that these mutations are tested at different compound concentrations for compounds L, M and C, and the results are shown in table 14).
# (§3) The activity of various wild-type BioDA and variant enzymes was also tested when treated with DMSO or herbicide in vitro.
# (§4) Protein of Schizosaccharomyces japonicus BioDA (SEQ ID NO:13), Nannochloropsis gaditana BioDA (SEQ ID NO:3), Selaginella moellendorffii BioDA (SEQ ID NO:319), Quercus robur BioDA (SEQ ID NOA11), Ostreococcus tauri BioDA (SEQ ID NO:9), and the variants of Ostreococcus tauri BioDA A374D, F332A and P407A (SEQ ID Nos:321-323) was prepared using the method in Example 6. BioDA enzyme activity in the presence of herbicide or DMSO in vitro for each of the proteins was assayed according to the enzyme assay method above. The results are shown in Table 26 provided below in the “TABLES” section.
# Ostreococcus tauri BioDA = assay: as above; conditions: Ostreococcus tauri BioDAΔMTP
# From the text: as §1, §2, §3, §4
# [2] = tested on: Pedobacter hartonius BioA; assay: BioA enzyme activity with DMSO or herbicide in vitro; conditions: 0.5 μM, spermidine in substrate mix
# From the text: as §1, §2
# (§5) Protein of Escherichia coli BioA (SEQ ID NO:159), Pantoea ananatis BioA (SEQ ID NO:167), Streptomyces viridochromogenes BioA (SEQ ID NO:170), Cryptosporidium andersoni BioA (SEQ ID NO:160), Stenotrophomonas maltophilia BioA (SEQ ID NO:171), Chroococcidiopsis BioA (SEQ ID NO:184), Pedobacter hartonius BioA (SEQ ID NO:181), Chitinophaga filiformis BioA (SEQ ID NO:180), Tenacibaculum adriaticum BioA (SEQ ID NO:185) and Bacillus subtilis BioA (SEQ ID NO:166) was prepared using the method in Example 6. BioA enzyme activity in the presence of herbicide or DMSO in vitro for each of the proteins was assayed according to the enzyme assay method in Example 6, except in some reactions spermidine was replaced with 2 mM S-Adenosyl methionine.
# [3] = tested on: Chitinophaga filiformis BioA; assay: as above; conditions: 0.5 μM, spermidine in substrate mix
# From the text: as §1, §2, §5
# [4] = tested on: Tenacibaculum adriaticum BioA; assay: as above; conditions: 0.5 μM, spermidine in substrate mix
# From the text: as §1, §2, §5
# Pantoea ananatis BioA = assay: as above; conditions: SAM in substrate mix
# From the text: as §1, §2, §5
# [5] = tested on: Streptomyces viridochromogenes BioA; assay: as above; conditions: SAM in substrate mix
# From the text: as §1, §2, §5
# Bacillus subtilis BioA = assay: as above; conditions: 0.5 μM, spermidine in substrate mix
# From the text: as §1, §2, §5
# [6] = tested on: Stenotrophomonas maltophilia BioA; assay: as above; conditions: spermidine in substrate mix
# From the text: as §1, §2, §5
# Escherichia coli BioA = target: T1, Escherichia coli BioA (Escherichia coli, UniProt P12995); assay: as above; conditions: SAM in substrate mix, read-out: % Inhibition relative to DMSO treatment
# T1 construct: 6xHis-tag (N); thrombin cleavage site (N); made in house; host or cells: E. coli BL21 (DE3) bioA
# From the text: as §1, §2, §5
# T1 sequence (P12995 whole entry): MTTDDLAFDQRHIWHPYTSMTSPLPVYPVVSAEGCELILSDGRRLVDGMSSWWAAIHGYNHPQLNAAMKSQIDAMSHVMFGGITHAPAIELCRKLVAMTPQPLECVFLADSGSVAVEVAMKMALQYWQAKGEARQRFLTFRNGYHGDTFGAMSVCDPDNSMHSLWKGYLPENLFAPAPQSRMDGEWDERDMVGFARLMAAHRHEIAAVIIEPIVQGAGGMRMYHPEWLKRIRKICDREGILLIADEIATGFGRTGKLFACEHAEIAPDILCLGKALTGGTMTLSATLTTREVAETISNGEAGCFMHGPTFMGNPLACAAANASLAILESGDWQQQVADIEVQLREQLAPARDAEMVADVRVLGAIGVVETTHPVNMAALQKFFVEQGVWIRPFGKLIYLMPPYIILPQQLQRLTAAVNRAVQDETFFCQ
Structure (SMILES),% Inhibition relative to DMSO treatment ([1]; 0.5 μM) [%],% Inhibition relative to DMSO treatment ([1]; 31 μM) [%],% Inhibition relative to DMSO treatment ([1]; 500 μM) [%],% Inhibition relative to DMSO treatment (Ostreococcus tauri BioDA; 0.5 μM) [%],% Inhibition relative to DMSO treatment (Ostreococcus tauri BioDA; 31 μM) [%],% Inhibition relative to DMSO treatment (Ostreococcus tauri BioDA; 500 μM) [%],% Inhibition relative to DMSO treatment [2] [%],% Inhibition relative to DMSO treatment [3] [%],% Inhibition relative to DMSO treatment [4] [%],% Inhibition relative to DMSO treatment (Pantoea ananatis BioA; 0.5 μM) [%],% Inhibition relative to DMSO treatment ([5]; 0.5 μM) [%],% Inhibition relative to DMSO treatment (Bacillus subtilis BioA) [%],% Inhibition relative to DMSO treatment ([6]; 0.5 μM) [%],inhibition at 0.5 µM (Escherichia coli BioA) [%],also measured
"CCn1c(Cn2ccc(C(F)(F)F)n2)cc(=O)c(C(=O)O)c1-c1ccc(Cl)c(Cl)c1 [Compound L, 2-(3,4-dichlorophenyl)-1-ethyl-4-oxo-6-[[3-(trifluoromethyl)pyrazol-1-yl]methyl]pyridine-3-carboxylic acid]",0,55,94,5,83,98,2,11,16,9,0,0,0,4,% Inhibition relative to DMSO treatment (Pantoea ananatis BioA; 31 μM): 0%; % Inhibition relative to DMSO treatment (Pantoea ananatis BioA; 500 μM): 23%; % Inhibition relative to DMSO treatment ([5]; 31 μM): 16%; % Inhibition relative to DMSO treatment ([5]; 500 μM): 34%; % Inhibition relative to DMSO treatment ([6]; 31 μM): 0%; % Inhibition relative to DMSO treatment ([6]; 500 μM): 16%; inhibition at 31 µM (Escherichia coli BioA; 31 μM): 8%; inhibition at 500 µM (Escherichia coli BioA; 500 μM): 35%
"CCn1c(-c2ccc(Cl)c(Cl)c2)c(C(=O)O)c(=O)c2cc(F)ccc21 [Compound M, 2-(3,4-dichlorophenyl)-1-ethyl-6-fluoro-4-oxo-quinoline-3-carboxylic acid]",15,95,99,0,45,92,0,0,13,11,0,4,1,0,–
